System: subject on metformin (type 2 diabetes)
Assay: Blood glucose response after a standard meal under three treatment regimens (Example 1)
Format: in vivo, human
Conditions: control regimen: metformin 500 mg with the standard meal, no pre-meal drink; after overnight fasting
Method: This example compares the blood glucose response in a subject on a dosage of metformin of 500 mg (immediate release dosage) taken twice per day using three different treatment regimens after overnight fasting on separate dates.
The three treatment regimens were as follows: • 1. Regimen in accordance with the invention in which a dose of 500 mg mg of metformin as a (immediate release) tablet 30 minutes before a standard meal followed by a standard drink 15 minutes before the standard meal. Blood glucose levels with time are shown in plot 1 of FIG. 1. • 2. Control Regimen in which the metformin medication was administered with the standard meal without the pre-meal drink. Blood glucose levels with time are shown in plot 2 of FIG. 1. • 3. Comparison regimen in which the standard drink was administered 15 minutes before a meal and the metformin medication was administered with the standard meal. Blood glucose levels with time are shown in plot 3 of FIG. 1.
The standard pre-meal drink used in Example 1 was formed of the following composition: • 20 g WPC-80 • 5 g guar gum • 150 ml water
The drink was prepared by mixing the powder with water according to the following procedure: • 20 g of WPC80 (whey protein concentrate) and 5 g of guar gum were mixed together as a powder. […] The lid was removed ready for the participant to consume immediately. […]

CN(C)C(=N)N=C(N)N [metformin, Metformin]
post-prandial blood glucose with time (FIG. 1, Plot 2): significant rise in post-prandial glucose for a period of over 60 minutes

Source: patent US20160287515A1, “REGIMEN AND METHOD FOR TREATMENT OF TYPE 2 DIABETES” (Omniblend Innovation Pty Ltd, priority 2013, published 2016)
